One test has as its target KRas G12D (Homo sapiens (Human), UniProt P01116, G12D). As to the kind of experiment: KRas G12D Binding Assay (TR-FRET displacement). As to conditions: TR-FRET displacement of Cy5 labelled tracer, GDP-loaded KRAS G12D, 60 minute incubation at 22° C. The procedure: After a 60 minute incubation at 22° C., the reaction was measured using a PerkinElmer EnVision multimode plate reader via TR-FRET dual wavelength detection, and the percent of control (POC) calculated using a ratiometric emission factor. […] The POC values were fit to a 4-parameter logistic curve and the IC50 value was determined as the concentration where the curve crosses 50 POC.

Test [1] has as its system KRas G12D-mediated phosphorylation of ERK. As to the kind of experiment: Inhibition of KRas G12D-mediated phosphorylation of ERK in AGS cells. The test is classed as cell-based. The following applies: Homo sapiens; AGS cells expressing G12D, 3 hours, phospho-ERK normalized to GAPDH. The essentials:
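In-cell Western: p-ERK Thr202/Tyr204 signal over GAPDH, as % of DMSO control, with IC50 from a 4-parameter curve. AGS cells seeded 40,000/well for 12-14 h, exposed to compound 3 h at 0.5% DMSO final, then formaldehyde-fixed and methanol-permeabilized.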

Structures can show the parent of a compound that is named as a salt.

Drawing on patent publication US11453683B1, “KRas G12D inhibitors” (Mirati Therapeutics, Inc., priority 2019, dated 2022), this text covers IC50 for 21 compounds.

KRas G12D, sequence (P01116 other isoform, or with tags, fused parts or gaps G12D): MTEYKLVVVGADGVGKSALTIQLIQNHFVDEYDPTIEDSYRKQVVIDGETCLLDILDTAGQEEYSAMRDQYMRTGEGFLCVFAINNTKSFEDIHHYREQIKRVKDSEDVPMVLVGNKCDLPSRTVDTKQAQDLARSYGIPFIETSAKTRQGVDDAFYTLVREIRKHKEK

The term IC50 denotes the point on the concentration scale where inhibition reaches its midpoint. The compound `CO[C@H]1C[C@@H](COc2nc(N3C[C@H]4CC[C@@H](C3)N4)c3cnc(-c4cccc5cccc(Cl)c45)c(F)c3n2)N(C)C1` [Example 149, 4-((1R,5S)-3,8-diazabicyclo[3.2.1]octan-3-yl)-7-(8-chloronaphthalen-1-yl)-8-fluoro-2-(((2S,4S)-4-methoxy-1-methylpyrrolidin-2-yl)methoxy)pyrido[4,3-d]pyrimidine] showed an IC50 at KRas G12D of 0.87 µM.

As for `Nc1ccc(Cl)c(F)c1-c1ncc2c(N3CC4CCC(C3)N4)nc(OC[C@@]34CCCN3C[C@H](F)C4)nc2c1F` (racemic) [Example 380, 2-(4-((1R,5S)-3,8-diazabicyclo[3.2.1]octan-3-yl)-8-fluoro-2-((2-fluorotetrahydro-1H-pyrrolizin-7a(5H)-yl)methoxy)pyrido[4,3-d]pyrimidin-7-yl)-4-chloro-3-fluoroaniline bis(2,2,2-trifluoroacetate) (racemic, trans)], the IC50 on KRas G12D is 0.0657 µM; in test [1] it was over 16.7 µM.

Consider `Cc1cc2[nH]ncc2c(-c2ncc3c(N4CC5CCC(C4)N5)nc(OC[C@@]45CCCN4C[C@H](F)C5)nc3c2F)c1Cl` (racemic) [Example 376, 4-((1R,5S)-3,8-diazabicyclo[3.2.1]octan-3-yl)-7-(5-chloro-6-methyl-1H-indazol-4-yl)-8-fluoro-2-((2-fluorotetrahydro-1H-pyrrolizin-7a(5H)-yl)methoxy)pyrido[4,3-d]pyrimidine (racemic, trans)], for which the IC50 on KRas G12D amounted to 0.0026 µM.

As for `CC(C)(C)c1ccccc1-c1ncc2c(N3CC4CCC(C3)N4)nc(OC[C@@]34CCCN3C[C@H](F)C4)nc2c1F` (racemic) [Example 362, 4-((1R,5S)-3,8-diazabicyclo[3.2.1]octan-3-yl)-7-(2-(tert-butyl)phenyl)-8-fluoro-2-((2-fluorotetrahydro-1H-pyrrolizin-7a(5H)-yl)methoxy)pyrido[4,3-d]pyrimidine (racemic, trans)], the IC50 on KRas G12D came out at 0.106 µM; in test [1], 10.5 µM.

Regarding `Fc1c(-c2ccccc2CC(F)(F)F)ncc2c(N3CC4CCC(C3)N4)nc(OC[C@@]34CCCN3C[C@H](F)C4)nc12` (racemic) [Example 383, 4-((1R,5S)-3,8-diazabicyclo[3.2.1]octan-3-yl)-8-fluoro-2-((2-fluorotetrahydro-1H-pyrrolizin-7a(5H)-yl)methoxy)-7-(2-(2,2,2-trifluoroethyl)phenyl)pyrido[4,3-d]pyrimidine (racemic, trans)], on KRas G12D, the IC50 is 0.586 µM.

On to `Oc1cccc(F)c1-c1ncc2c(N3CC4CCC(C3)N4)nc(OCC34CCCN3C[C@H](F)C4)nc2c1F` (mixture of isomers) [Example 369, 2-(4-((1R,5S)-3,8-diazabicyclo[3.2.1]octan-3-yl)-8-fluoro-2-((2-fluorotetrahydro-1H-pyrrolizin-7a(5H)-yl)methoxy)pyrido[4,3-d]pyrimidin-7-yl)-3-fluorophenol (racemic, trans)], for which, at KRas G12D, the IC50 was found to be 0.221 µM.

As for `Fc1c(-c2ccccc2C2CCC2)ncc2c(N3CC4CCC(C3)N4)nc(OCC34CCCN3C[C@H](F)C4)nc12` (mixture of isomers) [Example 371, 4-((1R,5S)-3,8-diazabicyclo[3.2.1]octan-3-yl)-7-(2-cyclobutylphenyl)-8-fluoro-2-((2-fluorotetrahydro-1H-pyrrolizin-7a(5H)-yl)methoxy)pyrido[4,3-d]pyrimidine (racemic, trans)], the IC50 on KRas G12D worked out at 0.394 µM.

Turning to `OCC1CCC2(COc3nc(N4C[C@H]5CC[C@@H](C4)N5)c4cnc(-c5cccc6cccc(Cl)c56)c(F)c4n3)CCCN12` (stereo partly drawn) [Example 135, (7a-(((4-((1R,5S)-3,8-diazabicyclo[3.2.1]octan-3-yl)-7-(8-chloronaphthalen-1-yl)-8-fluoropyrido[4,3-d]pyrimidin-2-yl)oxy)methyl)hexahydro-1H-pyrrolizin-3-yl)methanol], the IC50 is 0.0021 µM at KRas G12D and 4.82 µM in test [1].

On to `FCC1CCC2(COc3nc(N4C[C@H]5CC[C@@H](C4)N5)c4cnc(-c5cccc6cccc(Cl)c56)c(F)c4n3)CCCN12` (stereo partly drawn) [Example 347, 4-((1R,5S)-3,8-diazabicyclo[3.2.1]octan-3-yl)-7-(8-chloronaphthalen-1-yl)-8-fluoro-2-((3-(fluoromethyl)tetrahydro-1H-pyrrolizin-7a(5H)-yl)methoxy)pyrido[4,3-d]pyrimidine], for which the IC50 on KRas G12D amounted to 0.0021 µM; in test [1], 0.459 µM.

As for `CSc1cccc2cc(O)cc(-c3ncc4c(N5CC6CCC(C5)N6)nc(OCC56CCCN5C[C@H](F)C6)nc4c3F)c12` (mixture of isomers) [Example 372, 4-(4-((1R,5S)-3,8-diazabicyclo[3.2.1]octan-3-yl)-8-fluoro-2-((2-fluorotetrahydro-1H-pyrrolizin-7a(5H)-yl)methoxy)pyrido[4,3-d]pyrimidin-7-yl)-5-(methylthio)naphthalen-2-ol (racemic, trans)], the IC50 at KRas G12D was 0.0007 µM; in test [1], 0.0105 µM.

`Fc1c(-c2ccccc2C2CC2)ncc2c(N3CC4CCC(C3)N4)nc(OC[C@@]34CCCN3C[C@H](F)C4)nc12` (racemic) [Example 368, 4-((1R,5S)-3,8-diazabicyclo[3.2.1]octan-3-yl)-7-(2-cyclopropylphenyl)-8-fluoro-2-((2-fluorotetrahydro-1H-pyrrolizin-7a(5H)-yl)methoxy)pyrido[4,3-d]pyrimidine (racemic, trans)] displayed an IC50 on KRas G12D of 0.208 µM.

Turning to `COc1cc(-c2ncc3c(N4CC5CCC(C4)N5)nc(OC[C@@]45CCCN4C[C@H](F)C5)nc3c2F)c2ccccc2c1` (racemic) [Example 385, 4-((1R,5S)-3,8-diazabicyclo[3.2.1]octan-3-yl)-8-fluoro-2-((2-fluorotetrahydro-1H-pyrrolizin-7a(5H)-yl)methoxy)-7-(3-methoxynaphthalen-1-yl)pyrido[4,3-d]pyrimidine (racemic, trans)], the values for the IC50 (on KRas G12D; in test [1]) were 3.08 µM and over 16.7 µM, respectively.

As for `Oc1ccc(SC(F)(F)F)c(-c2ncc3c(N4CC5CCC(C4)N5)nc(OC[C@@]45CCCN4C[C@H](F)C5)nc3c2F)c1` (racemic) [Example 386, 3-(4-((1R,5S)-3,8-diazabicyclo[3.2.1]octan-3-yl)-8-fluoro-2-((2-fluorotetrahydro-1H-pyrrolizin-7a(5H)-yl)methoxy)pyrido[4,3-d]pyrimidin-7-yl)-4-((trifluoromethyl)thio)phenol (racemic, trans)], the IC50 worked out at 0.002 µM at KRas G12D and 0.32 µM in test [1].

Take `COc1ccc(OC(F)(F)F)c(-c2ncc3c(N4CC5CCC(C4)N5)nc(OC[C@@]45CCCN4C[C@H](F)C5)nc3c2F)c1` (racemic) [Example 361, 4-((1R,5S)-3,8-diazabicyclo[3.2.1]octan-3-yl)-8-fluoro-2-((2-fluorotetrahydro-1H-pyrrolizin-7a(5H)-yl)methoxy)-7-(5-methoxy-2-(trifluoromethoxy)phenyl)pyrido[4,3-d]pyrimidine (racemic, trans)]: the IC50 at KRas G12D came out at 2.7 µM.

Consider `OCCOc1nc(N2C[C@H]3CC[C@@H](C2)N3)c2cnc(-c3cc(O)cc4ccccc34)c(F)c2n1` [Example 69, 4-(4-((1R,5S)-3,8-diazabicyclo[3.2.1]octan-3-yl)-8-fluoro-2-(2-hydroxyethoxy)pyrido[4,3-d]pyrimidin-7-yl)naphthalen-2-ol], for which the IC50 in test [1] is over 16.7 µM.

Turning to `CCn1ccc2cccc(-c3ncc4c(N5C[C@H]6CC[C@@H](C5)N6)nc(OCC56CCCN5CCC6)nc4c3F)c21` [Example 427, 4-((1R,5S)-3,8-diazabicyclo[3.2.1]octan-3-yl)-7-(1-ethyl-1H-indol-7-yl)-8-fluoro-2-((hexahydro-1H-pyrrolizin-7a-yl)methoxy)pyrido[4,3-d]pyrimidine], the IC50 in test [1] stood at 1.98 µM.

For `NCC#Cc1cccc2cccc(-c3ncc4c(N5C[C@H]6CC[C@@H](C5)N6)nc(OCC56CCCN5CCC6)nc4c3F)c12` [Example 241, 3-(8-(4-((1R,5S)-3,8-diazabicyclo[3.2.1]octan-3-yl)-8-fluoro-2-((tetrahydro-1H-pyrrolizin-7a(5H)-yl)methoxy)pyrido[4,3-d]pyrimidin-7-yl)naphthalen-1-yl)prop-2-yn-1-amine], the IC50 in test [1] was over 16.7 µM.

With `CN1CCC[C@H]1COc1nc(N2C[C@H]3CC[C@@H](C2)N3)c2cnc(-c3cccc4ccc(F)cc34)c(F)c2n1` [Example 19, 4-((1R,5S)-3,8-diazabicyclo[3.2.1]octan-3-yl)-8-fluoro-7-(7-fluoronaphthalen-1-yl)-2-(((S)-1-methylpyrrolidin-2-yl)methoxy)pyrido[4,3-d]pyrimidine], the IC50 in test [1] is over 16.7 µM.

As for `Cn1cc([C@H]2CN3CCC[C@]3(COc3nc(N4CC5CCC(C4)N5)c4cnc(-c5cccc6cccc(Cl)c56)c(F)c4n3)C2)cn1` (stereo in doubt) [Example 220, 4-((1R,5S)-3,8-diazabicyclo[3.2.1]octan-3-yl)-7-(8-chloronaphthalen-1-yl)-8-fluoro-2-((2-(1-methyl-1H-pyrazol-4-yl)tetrahydro-1H-pyrrolizin-7a(5H)-yl)methoxy)pyrido[4,3-d]pyrimidine tris-hydrochloride salt], the midpoint of inhibition in test [1], the IC50, lay at 1.34 µM.

Turning to `CN1CCC[C@H]1COc1nc(N2CC3CCC(CCC#N)(C2)N3)c2cnc(-c3cc(O)cc4ccccc34)c(F)c2n1` (stereo partly drawn) [Example 157, 3-(3-(8-fluoro-7-(3-hydroxynaphthalen-1-yl)-2-(((S)-1-methylpyrrolidin-2-yl)methoxy)pyrido[4,3-d]pyrimidin-4-yl)-3,8-diazabicyclo[3.2.1]octan-1-yl)propanenitrile bis(2,2,2-trifluoroacetate)], in test [1], the IC50 is 8 µM.

`Fc1c(-c2cccc3cccc(Cl)c23)ncc2c(N3C[C@H]4CC[C@@H](C3)N4)nc(OCC34CCCCN3CCC4)nc12` (stereo partly drawn) [Example 54, 4-((1R,5S)-3,8-diazabicyclo[3.2.1]octan-3-yl)-7-(8-chloronaphthalen-1-yl)-8-fluoro-2-((hexahydroindolizin-8a(1H)-yl)methoxy)pyrido[4,3-d]pyrimidine] registered an IC50 in test [1] of over 16.7 µM.
